Measurements taken from the supplement of paper PMC10307832.

Legend:
Assay in all cases: relative viability (nuclei count vs DMSO), 5 days (fraction); higher = more cells survive
[1] = compound: O=C(NC1CCNCC1)c1n[nH]cc1NC(=O)c1c(Cl)cccc1Cl [AT-7519] + COc1cccc2cc(-c3nc([C@H]4CC[C@H](C(=O)O)CC4)n4ncnc(N)c34)[nH]c12 [OSI-027] (partner 0.5 µM)
In short: (§1)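 Lung cancer cell lines in 1536-well plates got either a single drug or a fixed anchor-drug dose together with five library-drug doses (not always all listed) in √10 steps, by pin tool, on the day after seeding. Nuclei were counted after 5 days, and relative viability is the treated-to-vehicle ratio of nuclei counts. Values are medians of duplicate plates.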

[2] = compound: O=C(NC1CCNCC1)c1n[nH]cc1NC(=O)c1c(Cl)cccc1Cl [AT-7519] + O=C(CCCCCCC(=O)Nc1ccccc1)NO [Vorinostat] (partner 1 µM)
In short: as §1

[3] = compound: O=C(NC1CCNCC1)c1n[nH]cc1NC(=O)c1c(Cl)cccc1Cl [AT-7519] + C[C@]1(O)C[C@@H](c2nc(-c3ccc4ccc(-c5ccccc5)nc4c3)c3c(N)nccn32)C1 [Linsitinib] (partner 1 µM)
In short: as §1

[4] = compound: O=C(NC1CCNCC1)c1n[nH]cc1NC(=O)c1c(Cl)cccc1Cl [AT-7519] + Cc1nc(NC(=O)N2CCC[C@H]2C(N)=O)sc1-c1ccnc(C(C)(C)C(F)(F)F)c1 [Alpelisib] (partner 2 µM)
In short: as §1

Row | Cell Line | relative viability ([1]; first compound 0.01 µM) | relative viability ([1]; first compound 0.03162 µM) | relative viability ([1]; first compound 0.3162 µM) | relative viability ([1]; first compound 1 µM) | relative viability ([2]; first compound 0.01 µM) | relative viability ([2]; first compound 0.03162 µM) | relative viability ([2]; first compound 0.3162 µM) | relative viability ([2]; first compound 1 µM) | relative viability ([3]; first compound 0.01 µM) | relative viability ([3]; first compound 0.03162 µM) | relative viability ([3]; first compound 0.3162 µM) | relative viability ([3]; first compound 1 µM) | relative viability ([4]; first compound 0.01 µM) | relative viability ([4]; first compound 0.03162 µM) | relative viability ([4]; first compound 0.3162 µM) | relative viability ([4]; first compound 1 µM)
1 | NCI-H2342 | 0.628 | 0.533 | 0.591 | 0.62 | 0.773 | 0.696 | 0.772 | 0.631 |  |  |  |  |  |  |  | 
2 | HCC-15 | 0.673 | 0.632 | 0.54 | 0.34 | 0.857 | 0.796 | 0.799 | 0.565 | 0.961 | 0.879 | 0.724 | 0.43 | 0.959 | 0.905 | 0.763 | 0.406
3 | A-427 | 0.419 | 0.389 | 0.477 | 0.187 | 0.894 | 0.863 | 0.927 | 0.768 | 1.13 | 1.12 | 1.13 | 0.81 | 1.11 | 1.06 | 1.01 | 0.453
4 | NCI-H2228 | 0.517 | 0.586 | 0.469 | 0.446 | 0.406 | 0.671 | 0.572 | 0.517 | 0.618 | 0.564 | 0.544 | 0.312 | 0.972 | 0.821 | 0.584 | 0.415
5 | NCI-H1734 | 0.521 | 0.543 | 0.445 | 0.397 | 0.723 | 0.831 | 0.739 | 0.535 | 0.92 | 0.874 | 0.796 | 0.549 | 0.645 | 0.655 | 0.613 | 0.434
6 | PC-14 | 0.725 | 0.701 | 0.691 | 0.125 | 0.838 | 0.668 | 0.621 | 0.388 | 0.927 | 0.873 | 0.909 | 0.848 | 0.839 | 1 | 1 | 0.912
7 | NCI-H1915 | 0.406 | 0.598 | 0.521 | 0.394 | 0.537 | 0.558 | 0.588 | 0.546 | 1.08 | 1.05 | 1.11 | 0.909 | 1.06 | 1 | 1.04 | 0.732
8 | NCI-H1666 | 0.825 | 0.82 | 0.838 | 0.652 | 0.998 | 0.931 | 1.03 | 0.959 | 0.727 | 0.784 | 0.807 | 0.376 | 0.846 | 1.01 | 0.864 | 0.326
9 | HCC-366 | 0.769 | 0.808 | 0.89 | 0.718 | 0.254 | 0.325 | 0.278 | 0.241 | 0.639 | 0.522 | 0.429 | 0.185 | 0.362 | 0.347 | 0.514 | 0.228
10 | SK-MES-1 | 0.615 | 0.58 | 0.564 | 0.332 | 1.2 | 1.1 | 1.05 | 0.934 | 1.08 | 0.958 | 1.08 | 0.953 | 0.839 | 0.699 | 0.86 | 0.397
